From US11945813B2, “5-substituted 4-amino-1H-benzo[c][1,2,6]thiadiazine 2,2-dioxides and formulations and uses thereof” (Firmenich Incorporated, priority 2018, dated 2024) come the findings set out here.

For this test, the target named is T1, T1R2/T1R3 taste receptor (Homo sapiens, UniProt Q8TE23).
T1 sequence (Q8TE23 20-839): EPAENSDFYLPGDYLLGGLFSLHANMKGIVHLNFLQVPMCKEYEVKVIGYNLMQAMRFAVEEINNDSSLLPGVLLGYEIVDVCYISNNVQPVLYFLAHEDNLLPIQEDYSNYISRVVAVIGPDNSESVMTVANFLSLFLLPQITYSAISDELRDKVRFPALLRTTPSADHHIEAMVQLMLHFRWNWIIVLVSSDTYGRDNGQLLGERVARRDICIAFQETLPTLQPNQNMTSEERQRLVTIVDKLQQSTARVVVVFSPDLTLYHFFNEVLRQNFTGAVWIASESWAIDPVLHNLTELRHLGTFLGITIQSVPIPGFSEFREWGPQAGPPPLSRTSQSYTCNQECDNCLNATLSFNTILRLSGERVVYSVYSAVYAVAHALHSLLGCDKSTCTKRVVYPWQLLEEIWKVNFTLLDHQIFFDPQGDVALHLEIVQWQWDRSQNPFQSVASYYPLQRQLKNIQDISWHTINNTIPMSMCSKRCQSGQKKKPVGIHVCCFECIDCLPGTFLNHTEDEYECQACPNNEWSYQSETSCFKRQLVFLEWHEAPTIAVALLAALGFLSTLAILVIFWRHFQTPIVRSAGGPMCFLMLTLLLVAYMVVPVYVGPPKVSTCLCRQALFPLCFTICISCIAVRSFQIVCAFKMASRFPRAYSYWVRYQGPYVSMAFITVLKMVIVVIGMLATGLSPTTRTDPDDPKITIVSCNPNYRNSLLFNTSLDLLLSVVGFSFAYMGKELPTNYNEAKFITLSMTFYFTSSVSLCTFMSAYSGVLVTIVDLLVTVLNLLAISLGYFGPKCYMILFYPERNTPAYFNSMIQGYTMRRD
T1 sequence (Q7RTX0 21-852 partner): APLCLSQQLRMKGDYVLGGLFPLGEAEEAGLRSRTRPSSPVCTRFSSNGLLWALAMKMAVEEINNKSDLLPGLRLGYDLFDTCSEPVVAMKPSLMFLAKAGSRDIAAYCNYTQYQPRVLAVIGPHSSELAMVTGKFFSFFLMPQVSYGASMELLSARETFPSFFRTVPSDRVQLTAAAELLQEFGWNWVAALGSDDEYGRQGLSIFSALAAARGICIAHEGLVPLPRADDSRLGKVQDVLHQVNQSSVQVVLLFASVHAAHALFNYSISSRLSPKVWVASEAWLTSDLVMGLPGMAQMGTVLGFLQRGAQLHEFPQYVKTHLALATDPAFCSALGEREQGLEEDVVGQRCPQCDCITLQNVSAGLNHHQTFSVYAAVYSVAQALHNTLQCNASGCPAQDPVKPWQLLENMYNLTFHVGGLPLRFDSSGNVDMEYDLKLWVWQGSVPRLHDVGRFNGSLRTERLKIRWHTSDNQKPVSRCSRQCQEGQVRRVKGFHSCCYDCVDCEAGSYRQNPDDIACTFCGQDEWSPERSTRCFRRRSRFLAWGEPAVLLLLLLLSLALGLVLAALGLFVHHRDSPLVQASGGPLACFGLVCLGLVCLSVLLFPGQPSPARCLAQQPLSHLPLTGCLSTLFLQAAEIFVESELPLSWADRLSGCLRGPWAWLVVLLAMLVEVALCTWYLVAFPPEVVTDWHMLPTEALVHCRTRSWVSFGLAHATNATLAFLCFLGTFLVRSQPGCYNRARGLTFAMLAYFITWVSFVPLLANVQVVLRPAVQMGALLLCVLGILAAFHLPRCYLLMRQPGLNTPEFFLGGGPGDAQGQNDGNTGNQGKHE
Nature of the test: Receptor-based assay: sweetener EC50 alone and with test compound (enhancement ratio). The note with it: for Fructose Enhancement EC50 Ratio: sweetener fructose; for Sucralose Enhancement EC50 Ratio: sweetener sucralose; for Sucrose Enhancement EC50 Ratio: sweetener sucrose. Format: cell-based. In a few lines:
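Sucrose, sucralose or fructose EC50 measured on human T1R2/T1R3, alone and with 3, 10 or 50 μM test compound. Enhancement is the EC50 ratio without/with compound, binned A >20, B 10-20, C >1 to <10.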

For `NC1=NS(=O)(=O)Nc2cccc(OC[C@H]3CCCN(c4cc(C(=O)NCC5CCCCC5)ccn4)C3)c21` [Compound 618], the “Fructose Enhancement EC50 Ratio” value (50 μM test compound) was “C (A “C” value indicates an enhancement ratio greater than 1 and less than 10)”. The “Sucralose Enhancement EC50 Ratio” value is recorded as “B (A “B” value indicates an enhancement ratio from 10 to 20)” (10 μM test compound) and “B (A “B” value indicates an enhancement ratio from 10 to 20)” (50 μM test compound). Besides, the “Sucrose Enhancement EC50 Ratio” value is, setting by setting: (3 μM test compound) “C (A “C” value indicates an enhancement ratio greater than 1 and less than 10)”; (10 μM test compound) “C (A “C” value indicates an enhancement ratio greater than 1 and less than 10)”; (50 μM test compound) “C (A “C” value indicates an enhancement ratio greater than 1 and less than 10)”.
Take `NC1=NS(=O)(=O)Nc2cccc(OC[C@H]3CCCN(c4cccc(C(=O)NC5CC5)n4)C3)c21` [Compound 400, (S)-6-(3-(((4-amino-2,2-dioxido-1H-benzo[c][1,2,6]thiadiazin-5-yl)oxy)methyl)piperidin-1-yl)-N-cyclopropylpicolinamide]: the “Fructose Enhancement EC50 Ratio” value runs as follows: (10 μM test compound) “C (A “C” value indicates an enhancement ratio greater than 1 and less than 10)”; (50 μM test compound) “C (A “C” value indicates an enhancement ratio greater than 1 and less than 10)”. Also, the “Sucralose Enhancement EC50 Ratio” value by setting is: (10 μM test compound) “A (An “A” value indicates an enhancement ratio of greater than 20)”; (50 μM test compound) “A (An “A” value indicates an enhancement ratio of greater than 20)”. Also, the “Sucrose Enhancement EC50 Ratio” value reads like this: (3 μM test compound) “C (A “C” value indicates an enhancement ratio greater than 1 and less than 10)”; (10 μM test compound) “C (A “C” value indicates an enhancement ratio greater than 1 and less than 10)”; (50 μM test compound) “B (A “B” value indicates an enhancement ratio from 10 to 20)”.
On to `CCNC(=O)c1ccc(N2CCC[C@H](COc3cccc4c3C(N)=NS(=O)(=O)N4)C2)nc1` [Compound 501], for which, where the note is “10 μM test compound”, the “Fructose Enhancement EC50 Ratio” value was “C (A “C” value indicates an enhancement ratio greater than 1 and less than 10)”; the “Sucralose Enhancement EC50 Ratio” value is on record as “A (An “A” value indicates an enhancement ratio of greater than 20)”; the “Sucrose Enhancement EC50 Ratio” value is “C (A “C” value indicates an enhancement ratio greater than 1 and less than 10)”. Also, for the setting “50 μM test compound”, the “Fructose Enhancement EC50 Ratio” value is “C (A “C” value indicates an enhancement ratio greater than 1 and less than 10)”; the “Sucralose Enhancement EC50 Ratio” value is reported as “A (An “A” value indicates an enhancement ratio of greater than 20)”; the “Sucrose Enhancement EC50 Ratio” value is “C (A “C” value indicates an enhancement ratio greater than 1 and less than 10)”. The “Sucrose Enhancement EC50 Ratio” value (3 μM test compound) was “C (A “C” value indicates an enhancement ratio greater than 1 and less than 10)”.
For the compound `COCCNC(=O)c1ccnc(N2CCC[C@H](COc3cccc4c3C(N)=NS(=O)(=O)N4)C2)c1` [Compound 604], under “50 μM test compound”, the “Fructose Enhancement EC50 Ratio” value is “C (A “C” value indicates an enhancement ratio greater than 1 and less than 10)”; the “Sucrose Enhancement EC50 Ratio” value was “B (A “B” value indicates an enhancement ratio from 10 to 20)”. Besides, the “Sucralose Enhancement EC50 Ratio” value (10 μM test compound) was “A (An “A” value indicates an enhancement ratio of greater than 20)”.
For the compound `CN(C)C(=O)c1ccc(N2CCC[C@H](COc3cccc4c3C(N)=NS(=O)(=O)N4)C2)nc1` [Compound 510], where the note is “50 μM test compound”, the “Fructose Enhancement EC50 Ratio” value is “C (A “C” value indicates an enhancement ratio greater than 1 and less than 10)”; the “Sucralose Enhancement EC50 Ratio” value is recorded as “A (An “A” value indicates an enhancement ratio of greater than 20)”; the “Sucrose Enhancement EC50 Ratio” value is recorded as “A (An “A” value indicates an enhancement ratio of greater than 20)”. Further, under “10 μM test compound”, the “Sucralose Enhancement EC50 Ratio” value is recorded as “B (A “B” value indicates an enhancement ratio from 10 to 20)”; the “Sucrose Enhancement EC50 Ratio” value is “C (A “C” value indicates an enhancement ratio greater than 1 and less than 10)”. For the same compound, the “Sucrose Enhancement EC50 Ratio” value (3 μM test compound) is “C (A “C” value indicates an enhancement ratio greater than 1 and less than 10)”.
As to `COCCNC(=O)c1ccc(N2CCC[C@H](COc3cccc4c3C(N)=NS(=O)(=O)N4)C2)nc1` [Compound 504], for the setting “50 μM test compound”, the “Fructose Enhancement EC50 Ratio” value was “C (A “C” value indicates an enhancement ratio greater than 1 and less than 10)”; the “Sucralose Enhancement EC50 Ratio” value is given as “A (An “A” value indicates an enhancement ratio of greater than 20)”; the “Sucrose Enhancement EC50 Ratio” value was “C (A “C” value indicates an enhancement ratio greater than 1 and less than 10)”. In addition, for the setting “10 μM test compound”, the “Sucralose Enhancement EC50 Ratio” value was “A (An “A” value indicates an enhancement ratio of greater than 20)”; the “Sucrose Enhancement EC50 Ratio” value is “C (A “C” value indicates an enhancement ratio greater than 1 and less than 10)”. For the same compound, the “Sucrose Enhancement EC50 Ratio” value (3 μM test compound) was “C (A “C” value indicates an enhancement ratio greater than 1 and less than 10)”.
Consider `NC1=NS(=O)(=O)Nc2cccc(OC[C@H]3CCCN(c4cc(C(=O)N5CCCC5)ccn4)C3)c21` [Compound 612], for which, for the setting “10 μM test compound”, the “Fructose Enhancement EC50 Ratio” value was “C (A “C” value indicates an enhancement ratio greater than 1 and less than 10)”; the “Sucralose Enhancement EC50 Ratio” value is recorded as “A (An “A” value indicates an enhancement ratio of greater than 20)”; the “Sucrose Enhancement EC50 Ratio” value was “C (A “C” value indicates an enhancement ratio greater than 1 and less than 10)”. Under “50 μM test compound”, the “Fructose Enhancement EC50 Ratio” value is “C (A “C” value indicates an enhancement ratio greater than 1 and less than 10)”; the “Sucralose Enhancement EC50 Ratio” value is listed as “A (An “A” value indicates an enhancement ratio of greater than 20)”; the “Sucrose Enhancement EC50 Ratio” value is “C (A “C” value indicates an enhancement ratio greater than 1 and less than 10)”. Further, where the note is “3 μM test compound”, the “Sucrose Enhancement EC50 Ratio” value is “C (A “C” value indicates an enhancement ratio greater than 1 and less than 10)”.
For `CCCNC(=O)c1cccc(N2CCC[C@H](COc3cccc4c3C(N)=NS(=O)(=O)N4)C2)n1` [Compound 403], the “Fructose Enhancement EC50 Ratio” value (10 μM test compound) is “C (A “C” value indicates an enhancement ratio greater than 1 and less than 10)”. Besides, the “Sucralose Enhancement EC50 Ratio” value is listed as “A (An “A” value indicates an enhancement ratio of greater than 20)” (10 μM test compound) and “A (An “A” value indicates an enhancement ratio of greater than 20)” (50 μM test compound). In addition, the “Sucrose Enhancement EC50 Ratio” value was “C (A “C” value indicates an enhancement ratio greater than 1 and less than 10)” (3 μM test compound); “C (A “C” value indicates an enhancement ratio greater than 1 and less than 10)” (10 μM test compound); “C (A “C” value indicates an enhancement ratio greater than 1 and less than 10)” (50 μM test compound).
Regarding `NC1=NS(=O)(=O)Nc2cccc(OC[C@H]3CCCN(c4cc(C(=O)NC5CCCC5)ccn4)C3)c21` [Compound 608], for the setting “10 μM test compound”, the “Fructose Enhancement EC50 Ratio” value was “C (A “C” value indicates an enhancement ratio greater than 1 and less than 10)”; the “Sucralose Enhancement EC50 Ratio” value is reported as “A (An “A” value indicates an enhancement ratio of greater than 20)”; the “Sucrose Enhancement EC50 Ratio” value was “C (A “C” value indicates an enhancement ratio greater than 1 and less than 10)”. Moreover, where the note is “50 μM test compound”, the “Fructose Enhancement EC50 Ratio” value is “C (A “C” value indicates an enhancement ratio greater than 1 and less than 10)”; the “Sucralose Enhancement EC50 Ratio” value was “A (An “A” value indicates an enhancement ratio of greater than 20)”; the “Sucrose Enhancement EC50 Ratio” value is on record as “B (A “B” value indicates an enhancement ratio from 10 to 20)”. Besides, the “Sucrose Enhancement EC50 Ratio” value (3 μM test compound) is “C (A “C” value indicates an enhancement ratio greater than 1 and less than 10)”.
